Assay results: US8388975B2, “Cancer antigen peptides derived from WT1” (International Institute of Cancer Immunology, Inc., priority 2004, dated 2013)
Like-named read-outs stand apart in the source and are kept apart here. Ends that are not written are not given here.

How the values were obtained:
B-LCL cells [1] = test system: B-LCL cells
Experimental: (§1) The cytotoxic activity of CTLs on target cells was measured by ^51Cr-release assay. The ^51Cr-labeled target cells (1×10^4 cells/100 μL in total) were cocultured with different numbers of effector cells (100 μL) in a round-bottom 96-well plate. After culturing at 37° C. for 3-5 hours, the plate was centrifuged to separate the supernatant (100 μL) which was subjected to the measurement of γ ray. Specific cytotoxicity (% specific lysis) was calculated as follows: % specific lysis=(cpm experimental release−cpm spontaneous release)/(cpm maximal release−cpm spontaneous release)×100

B-LCL cells [2] = test system: B-LCL cells; remark: listed apart in the source
Experimental: as §1
One week later, PBMCs were pulsed with the peptide of SEQ ID NO: 8, and used as stimulators in the stimulation. The stimulation was conducted every one week 3 times in total. After 3 times of stimulation, CD8-positive cells were enriched by negative selection method. Further, stimulation with the peptide of SEQ ID NO: 8 was conducted 2 times. […] Experiments were carried out in the same manner as above using a peptide of SEQ ID NO: 9 and a peptide of SEQ ID NO: 2.

Experimental for JY cell line: (§2) After obtaining informed-consent, blood was collected from HLA-A*0201-positive healthy subjects and peripheral blood mononuclear cells (PBMCs) were isolated using Ficoll-Hypaque separation solution. HLA-A*0201-positive T2 cell lines incapable of presenting endogenous peptides to HLA due to deficit in TAP gene (J. Immunol. 150: 1763, 1993) were pulsed with the peptide of SEQ ID NO: 3 at 20 μM for 2 hours, then radiated (7500 cGy), and co-cultured with PBMCs at the cell number ratio of 1:1. As the culture solution, a complete medium composed of 45% AIM-V medium, 45% RPMI1640 medium, 10% inactivated human serum, 0.1 mM MEM non-essential amino acids, 100 ng/mL streptomycin, 100 IU/mL penicillin and 25 ng/mL 2-mercaptoethanol was used. Seven days later, the second-time stimulation was conducted in a similar manner, and thereto was added 25 IU/mL of IL-2 (Shionogi & Co., Ltd) on the next day. Stimulation was conducted five times in total, and effector cells obtained after 5 days from the last stimulation were used in the measurement of cytotoxicity.
(§3) The cytotoxic activity of CTLs on target cells was measured by ^51Cr-release assay. […] Specific cytotoxicity (% specific lysis) was calculated as follows: % specific lysis=(cpm experimental release−cpm spontaneous release)/(cpm maximal release−cpm spontaneous release)×100
Experimental for T2 cells: After obtaining informed-consent, blood was collected from HLA-A*0201-positive healthy subjects and peripheral blood mononuclear cells (PBMCs) were isolated using Ficoll-Hypaque separation solution. HLA-A*0201-positive T2 cell lines incapable of presenting endogenous peptides to HLA due to deficit in TAP gene (J. Immunol. 150: 1763, 1993) were pulsed with the peptide of SEQ ID NO: 3 at 20 μM for 2 hours, then radiated (7500 cGy), and co-cultured with PBMCs at the cell number ratio of 1:1. […]
as §3
The “spontaneous release” and the “maximal release” were measured in the supernatant obtained from the culture of target cells and that obtained from the culture of target cells treated with 1% Triton X-100 solution, respectively. […] The cytotoxic activity was measured using, as target cells, T2 cells pulsed with the same peptide as used in the stimulation or T2 cells not pulsed with the peptide.
Experimental for TF-1 cell line: as §2, §3

| Sequence | cytotoxic activity (% specific lysis) of CTLs induced by stimulation with the peptide (T2 cells) | cytotoxic activity of CTLs induced by stimulation with the peptide on JY cells (JY cell line) | cytotoxic activity of CTLs induced by stimulation with the peptide on TF-1 cells (TF-1 cell line) | cytotoxic activity (% specific lysis) of CTLs induced by stimulation with the peptide (B-LCL cells [1]) | cytotoxic activity (% specific lysis) of CTLs induced by stimulation with the peptide (B-LCL cells [2]) |
| --- | --- | --- | --- | --- | --- |
| DLNALLPAV [SEQ ID NO: 3, Asp Leu Asn Ala Leu Leu Pro Ala Val] | more potent cytotoxic activity on T2 cells pulsed with the peptide than on T2 cells not-pulsed with the peptide | not JY cells | killed TF-1 cells |  |  |
| DQLKRHQRR [SEQ ID NO: 2] |  |  |  | more potent cytotoxic activity on B-LCL cells pulsed with the peptide than on B-LCL cells not-pulsed with the peptide | more potent cytotoxic activity on B-LCL cells pulsed with the peptide than on B-LCL cells not-pulsed with the peptide |
| VTFDGTPSY [SEQ ID NO: 8] |  |  |  |  | more potent cytotoxic activity on B-LCL cells pulsed with the peptide than on B-LCL cells not-pulsed with the peptide |
| QGSLGEQQY [SEQ ID NO: 9] |  |  |  |  | more potent cytotoxic activity on B-LCL cells pulsed with the peptide than on B-LCL cells not-pulsed with the peptide |
